In publication PMC2898832, “Active site plasticity revealed from the structure of the enterobacterial N-ribohydrolase RihA bound to a competitive inhibitor” (2010):

Target: T1, RihA (Escherichia coli, UniProt P41409)
T1 construct: full-length rihA (936 bp) from E. coli K12 derivative DH5α; N-terminal His-tag removed with thrombin; tetramer
Assay: X-ray co-crystal structure at […] Å; KI from competitive inhibition of uridine hydrolysis by purified enzyme
Assay type: biochemical

T1 sequence (P41409 whole entry): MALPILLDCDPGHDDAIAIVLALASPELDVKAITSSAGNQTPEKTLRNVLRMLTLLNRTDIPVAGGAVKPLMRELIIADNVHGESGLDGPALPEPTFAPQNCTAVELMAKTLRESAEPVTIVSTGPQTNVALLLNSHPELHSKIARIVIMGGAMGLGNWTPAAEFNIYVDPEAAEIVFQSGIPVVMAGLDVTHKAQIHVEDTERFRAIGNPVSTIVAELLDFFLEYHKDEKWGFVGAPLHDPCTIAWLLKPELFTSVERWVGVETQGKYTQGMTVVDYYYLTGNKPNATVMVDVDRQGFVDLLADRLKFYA

Structure (SMILES): Nc1ccc([C@@H]2N[C@H](CO)[C@@H](O)[C@H]2O)cc1N [DAPIR]
- Ki: 85 ± 7 µM
